The target of data set [1] is T1, 11-beta-hydroxysteroid dehydrogenase 1 (Homo sapiens, UniProt P28845). Briefly: Inhibition of human 11beta-HSD1 by SPA.
A short description of data set [2]: Metabolic stability in mouse liver microsome after 30 mins. Conditions: liver microsomes, read-out: Stability. In kind it is ADME.
Data set [3] addresses T1, 11-beta-hydroxysteroid dehydrogenase 1. Briefly: Inhibition of human 11beta-HSD1 expressed in HEK293 cells by FPIA. In kind it is cell-based.
For data set [4], the target named is T2, 11-beta-hydroxysteroid dehydrogenase type 2 (Mus musculus, UniProt P51661).
T2 sequence (P51661 whole entry): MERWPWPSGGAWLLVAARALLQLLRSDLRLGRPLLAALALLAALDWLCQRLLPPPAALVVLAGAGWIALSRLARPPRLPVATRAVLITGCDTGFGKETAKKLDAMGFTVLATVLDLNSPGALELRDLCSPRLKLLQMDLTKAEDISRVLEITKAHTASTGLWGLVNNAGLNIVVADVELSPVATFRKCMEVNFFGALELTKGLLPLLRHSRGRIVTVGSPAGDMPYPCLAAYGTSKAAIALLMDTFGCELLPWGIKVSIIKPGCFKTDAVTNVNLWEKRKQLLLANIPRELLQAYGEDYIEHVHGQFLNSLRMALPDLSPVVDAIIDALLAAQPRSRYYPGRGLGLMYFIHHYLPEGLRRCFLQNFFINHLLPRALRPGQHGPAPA
Briefly: Inhibition of mouse 11beta-HSD2 by SPA.

Data set [5] has as its target 11-beta-hydroxysteroid dehydrogenase 1 (Mus musculus, UniProt P50172). Briefly: Inhibition of mouse 11beta-HSD1 by SPA.
The target of data set [6] is T3, 11-beta-hydroxysteroid dehydrogenase type 2 (Homo sapiens, UniProt P80365).
T3 sequence (P80365 whole entry): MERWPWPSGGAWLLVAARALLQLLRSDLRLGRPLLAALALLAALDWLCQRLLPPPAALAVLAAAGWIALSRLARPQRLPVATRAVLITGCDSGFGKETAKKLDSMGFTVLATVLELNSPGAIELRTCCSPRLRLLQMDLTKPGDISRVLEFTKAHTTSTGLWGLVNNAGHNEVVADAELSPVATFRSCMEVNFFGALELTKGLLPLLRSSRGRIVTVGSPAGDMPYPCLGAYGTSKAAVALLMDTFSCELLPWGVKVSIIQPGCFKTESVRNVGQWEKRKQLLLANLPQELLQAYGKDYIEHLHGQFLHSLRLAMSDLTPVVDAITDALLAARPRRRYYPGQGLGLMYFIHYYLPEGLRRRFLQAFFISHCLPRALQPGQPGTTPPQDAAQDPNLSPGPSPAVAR
Briefly: Inhibition of human 11beta-HSD2 by SPA.

Data set [7] in a line: Bioavailability in ob/ob mouse at 10 mg/kg. Conditions: in vivo, oral. In kind it is ADME, organism-based.
A short description of data set [8]: Half life in ob/ob mouse at 5 mg/kg, iv or 10 mg/kg, po. It counts as ADME, organism-based. Conditions: in vivo.
Data set [9] can be described thus: Plasma clearance in ob/ob mouse at 5 mg/kg, iv or 10 mg/kg, po. It counts as ADME, organism-based.
Data set [10] relates to Mus musculus. The data set can be described thus: Ex vivo inhibition of 11beta-HSD1 in ob/ob mouse fat at 30 mg/kg, po after 7 hrs. In kind it is functional.
Data set [11] relates to Mus musculus. The data set can be described thus: Ex vivo inhibition of 11beta-HSD1 in ob/ob mouse liver at 30 mg/kg, po after 16 hrs. It counts as functional.
The test system of data set [12] is Mus musculus. The data set can be described thus: Ex vivo inhibition of 11beta-HSD1 in ob/ob mouse fat at 30 mg/kg, po after 1 hr. It counts as functional.
Data set [13] concerns Mus musculus. Briefly: Ex vivo inhibition of 11beta-HSD1 in ob/ob mouse fat at 30 mg/kg, po after 16 hrs. In kind it is functional.
Data set [14] deals with Mus musculus. Briefly: Ex vivo inhibition of 11beta-HSD1 in ob/ob mouse liver at 30 mg/kg, po after 7 hrs. It counts as functional.
Data set [15] deals with Mus musculus. Briefly: Ex vivo inhibition of 11beta-HSD1 in ob/ob mouse liver at 30 mg/kg, po after 1 hr. In kind it is functional.
The subject of data set [16] is Mus musculus. Briefly: Ex vivo inhibition of 11beta-HSD1 in ob/ob mouse brain at 30 mg/kg, po after 7 hrs. In kind it is functional.
The test system of data set [17] is Mus musculus. Briefly: Ex vivo inhibition of 11beta-HSD1 in ob/ob mouse brain at 30 mg/kg, po after 1 hr. In kind it is functional.
Data set [18] deals with Mus musculus. Briefly: Ex vivo inhibition of 11beta-HSD1 in ob/ob mouse brain at 30 mg/kg, po after 16 hrs. In kind it is functional.

SMILES strings stand for the structures.

T1 sequence (P28845 whole entry): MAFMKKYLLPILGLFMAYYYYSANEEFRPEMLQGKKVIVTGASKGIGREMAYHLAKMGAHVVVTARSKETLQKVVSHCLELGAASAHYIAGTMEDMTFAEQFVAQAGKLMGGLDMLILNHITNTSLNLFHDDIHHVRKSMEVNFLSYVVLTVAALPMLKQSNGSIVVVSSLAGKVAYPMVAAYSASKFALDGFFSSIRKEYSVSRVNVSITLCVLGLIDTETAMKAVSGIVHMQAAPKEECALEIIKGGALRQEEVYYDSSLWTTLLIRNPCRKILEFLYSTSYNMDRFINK
11-beta-hydroxysteroid dehydrogenase 1 (Mus musculus, UniProt P50172), sequence (P50172 whole entry): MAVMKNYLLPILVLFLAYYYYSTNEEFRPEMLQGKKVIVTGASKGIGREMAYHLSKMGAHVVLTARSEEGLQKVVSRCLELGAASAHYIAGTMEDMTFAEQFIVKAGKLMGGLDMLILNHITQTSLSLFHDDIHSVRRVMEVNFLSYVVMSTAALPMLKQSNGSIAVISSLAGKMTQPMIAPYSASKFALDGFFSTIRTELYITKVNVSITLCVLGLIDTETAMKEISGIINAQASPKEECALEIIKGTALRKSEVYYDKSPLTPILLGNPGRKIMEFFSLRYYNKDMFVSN

By IC50 is commonly meant the point on the concentration scale where inhibition reaches its midpoint. Read a high IC50 as lower potency. For `CC(C)(Oc1cccc(Cl)c1)C(=O)N[C@H]1C2CC3CC1C[C@](C(=O)O)(C3)C2`, the IC50 in [1] came to 15 nM; in data set [3] it was 190 nM; in data set [4] it was 540 nM; in data set [5], 51 nM; in [6] it was 3500 nM. Also, the remaining at 0.5 h in data set [2] amounted to 100%.

Usually bioavailability stands for dose-corrected exposure relative to a reference, in per cent. One may read the half-life as the time in which the quantity being followed falls by half. The low end stands for fast loss, the high end for slow loss. The compound `CC(C)(Oc1ccc(Cl)cc1)C(=O)N[C@H]1C2CC3CC1C[C@](C(N)=O)(C3)C2` had a bioavailability in [7] of 20%. Moreover, the remaining at 0.5 h in data set [2] was found to be 43%. For the same compound, the IC50 in [5] is 3 nM. The compound also showed a half-life in data set [8] of 0.3 h. This compound had a clearance in [9] of 70 mL/min/kg.

The term inhibition in vivo denotes the change of the read-out against control, counted positive when it falls. As for `CC(C)(Oc1ccc(Cl)cc1)C(=O)N[C@H]1C2CC3CC1C[C@](C(=O)NCc1ccc(C(=O)O)cc1)(C3)C2`, the inhibition in vivo at 30 mg/kg in [10] worked out at 38%; in data set [11], 77%; in data set [12], 37%; in [13] it was 36%; in data set [14], 93%; in data set [15], 99%. Besides, the remaining at 0.5 h in data set [2] was 94%. Also, inhibition in data set [5] was half-maximal at 12 nM (IC50).

For the compound `CC(C)(Oc1ccccc1Cl)C(=O)N[C@H]1C2CC3CC1C[C@](C(=O)O)(C3)C2`, the inhibition in vivo at 30 mg/kg is 47% in data set [10]; 35% in [11]; 67% in [12]; 6% in data set [13]; 76% in data set [14]; 81% in [15]. Besides, the IC50 was found to be 8 nM in [1]; 59 nM in [3]; 140 nM in data set [4]; 8 nM in data set [5]; 1800 nM in [6]. Also, the bioavailability in [7] is 100%. Moreover, in data set [2], the remaining at 0.5 h amounted to 94%. In data set [8], this compound showed a half-life of 3.9 h. The same compound showed a clearance in data set [9] of 15 mL/min/kg.

Take `CC(C)(Oc1ccc(Cl)cc1)C(=O)N[C@H]1C2CC3CC1C[C@](C(=O)NCc1ccc(C(=O)NS(C)(=O)=O)cc1)(C3)C2`: the remaining at 0.5 h in data set [2] came to 51%.

Turning to `CC(C)(Oc1ccc(Cl)cc1)C(=O)N[C@H]1C2CC3CC1C[C@](C(=O)NCc1ccc(-c4nnn[nH]4)cc1)(C3)C2`, the remaining at 0.5 h in [2] turned out to be 51%. For the same compound, the IC50 in [5] stood at 18 nM.

With `CC(C)(Oc1ccc(Cl)cc1)C(=O)N[C@H]1C2CC3CC1C[C@](C(=O)NCc1ccc(S(N)(=O)=O)cc1)(C3)C2`, the inhibition in vivo at 30 mg/kg in [10] came to 18%; in data set [11], 58%; in data set [12] it was 15%; in data set [16], 0%; in data set [13], 5%; in data set [17], 0%. For the same compound, the values for the inhibition in vivo at 30 mg/kg in [18], in data set [14] and in data set [15] were 18%, 55% and 45%, respectively. The IC50 in data set [1] was 51 nM; in [3], 300 nM; in data set [4], 16000 nM; in data set [5] it was 24 nM; in [6], more than 30000 nM. In addition, the bioavailability in [7] amounted to 44%. Moreover, in [2], the remaining at 0.5 h is 35%. Also, in data set [8], the half-life was 3.8 h. Also, the clearance in data set [9] is 15 mL/min/kg.

Turning to `CC(C)(Oc1ccc(Cl)cc1)C(=O)N[C@H]1C2CC3CC1C[C@](C(=O)NCc1ccncc1)(C3)C2`, the IC50 in data set [1] was 25 nM; in data set [3], 91 nM; in data set [4] it was 19000 nM; in data set [5], 14 nM; in [6], 5300 nM. For the same compound, the remaining at 0.5 h in [2] came out at 16%.

In data set [5], `CNC(=O)NC(=O)[C@]12CC3CC(C1)[C@@H](NC(=O)C(C)(C)Oc1ccc(Cl)cc1)C(C3)C2` returned an IC50 of 8 nM.

As to `CC(C)(Oc1ccc(Cl)cc1)C(=O)N[C@H]1C2CC3CC1C[C@](CO)(C3)C2`, in data set [2], the remaining at 0.5 h is 19%. In data set [5], this compound gave an IC50 of 6 nM.

For `CC(C)(Oc1ccc(Cl)cc1)C(=O)N[C@H]1C2CC3CC1C[C@](COCC(=O)O)(C3)C2`, the IC50 in data set [1] is 110 nM; in data set [3], 670 nM; in data set [4] it was 45000 nM; in data set [5], 210 nM; in [6], more than 100000 nM. The remaining at 0.5 h in data set [2] amounted to 100%.

For `CC(C)(Oc1ccc(F)cc1Cl)C(=O)N[C@H]1C2CC3CC1C[C@](c1nnn[nH]1)(C3)C2`, the remaining at 0.5 h in data set [2] is 87%. The IC50 in [5] was found to be 10 nM.

As to `CC(C)(Oc1ccccc1Cl)C(=O)N[C@H]1C2CC3CC1C[C@](C(=O)NS(C)(=O)=O)(C3)C2`, the IC50 is 96 nM in [1]; 744 nM in [3]; 1200 nM in data set [4]; 28 nM in data set [5]; 580 nM in data set [6]. In addition, in data set [2], the remaining at 0.5 h worked out at 94%.

As to `CC(C)(Oc1ccccc1Cl)C(=O)N[C@H]1C2CC3CC1C[C@](C(=O)NS(=O)(=O)c1ccccc1)(C3)C2`, the results for the half-maximal inhibitory concentration (IC50) in data set [1] and in data set [5] were 500 nM and 1000 nM, respectively.

With `CC(C)(Oc1ccccc1)C(=O)N[C@H]1C2CC3CC1C[C@](C(=O)O)(C3)C2`, in data set [2], the remaining at 0.5 h amounted to 98%. The compound further had an IC50 in [5] of 119 nM.

Regarding `COc1ccc(OC(C)(C)C(=O)N[C@H]2C3CC4CC2C[C@](C(N)=O)(C4)C3)cc1`, the remaining at 0.5 h in data set [2] came to 57%. Also, the IC50 in data set [5] amounted to 4 nM.

Take `CC(C)(Oc1ccc(Cl)cc1)C(=O)N[C@H]1C2CC3CC1C[C@](C(=O)NCc1cncs1)(C3)C2`: the remaining at 0.5 h in data set [2] worked out at 5%. The same compound displayed an IC50 in data set [5] of 11 nM.

`CC(C)(Oc1ccc(Cl)cc1)C(=O)N[C@H]1C2CC3CC1C[C@](C(=O)NCC(N)=O)(C3)C2`: the remaining at 0.5 h in data set [2] was 78%. For the same compound, the IC50 in data set [5] worked out at 4 nM.

`CC(C)(Oc1ccccc1)C(=O)N[C@H]1C2CC3CC1C[C@](C(N)=O)(C3)C2`: in data set [2], the remaining at 0.5 h worked out at 78%. In [5], this compound displayed an IC50 of 4 nM.

Take `CC(C)(Oc1ccc(Cl)cc1)C(=O)N[C@H]1C2CC3CC1C[C@](C(=O)O)(C3)C2`: the remaining at 0.5 h in [2] is 89%. The compound further had an IC50 in [5] of 70 nM.

Source of the values: ChEMBL document CHEMBL1138420, “Discovery of adamantane ethers as inhibitors of 11beta-HSD-1: Synthesis and biological evaluation” (Bioorg Med Chem Lett, 2007).
